This note sets out measurements from patent EP2253620B1, “SUBSTITUTED 3-CYANOQUINOLINES AS PROTEIN TYROSINE KINASES INHIBITORS” (Wyeth Holdings LLC, priority 1998, dated 2000).

Each structure is given as a SMILES string. ≈ marks a conversion by molar mass, not a printed value. Read-outs that look alike come from different tables or passages of the source.

Assay [1] deals with Epithelial Cell Kinase (ECK) (Homo sapiens, UniProt P29317). As to the kind of experiment: Inhibition of Epithelial Cell Kinase (ECK) tyrosine kinase activity. Format: biochemical. How it is done: In this standard pharmacological test procedure, a biotinylated peptide substrate is first immobilized on neutravidin-coated microtiter plates. The test drug, the Epithelial Cell Kinase (ECK), Mg^++, sodium vanadate (a protein tyrosine phosphatase inhibitor), and an appropriate buffer to maintain pH (7.2) are then added to the immobilized substrate-containing microtiter wells. ATP is then added to initiate phosphorylation. After incubation, the assay plates are washed with a suitable buffer leaving behind phosphorylated peptide which is exposed to horse radish peroxidase (HRP)-conjugated anti-phosphotyrosine monoclonal antibody. The antibody-treated plates are washed again and the HRP activity in individual wells is quantified as a reflection of degree of substrate phosphorylation. […] Multiple entries for a given compound indication it was tested multiple times.
Sequence of Epithelial Cell Kinase (ECK) (P29317 24-976, species assumed): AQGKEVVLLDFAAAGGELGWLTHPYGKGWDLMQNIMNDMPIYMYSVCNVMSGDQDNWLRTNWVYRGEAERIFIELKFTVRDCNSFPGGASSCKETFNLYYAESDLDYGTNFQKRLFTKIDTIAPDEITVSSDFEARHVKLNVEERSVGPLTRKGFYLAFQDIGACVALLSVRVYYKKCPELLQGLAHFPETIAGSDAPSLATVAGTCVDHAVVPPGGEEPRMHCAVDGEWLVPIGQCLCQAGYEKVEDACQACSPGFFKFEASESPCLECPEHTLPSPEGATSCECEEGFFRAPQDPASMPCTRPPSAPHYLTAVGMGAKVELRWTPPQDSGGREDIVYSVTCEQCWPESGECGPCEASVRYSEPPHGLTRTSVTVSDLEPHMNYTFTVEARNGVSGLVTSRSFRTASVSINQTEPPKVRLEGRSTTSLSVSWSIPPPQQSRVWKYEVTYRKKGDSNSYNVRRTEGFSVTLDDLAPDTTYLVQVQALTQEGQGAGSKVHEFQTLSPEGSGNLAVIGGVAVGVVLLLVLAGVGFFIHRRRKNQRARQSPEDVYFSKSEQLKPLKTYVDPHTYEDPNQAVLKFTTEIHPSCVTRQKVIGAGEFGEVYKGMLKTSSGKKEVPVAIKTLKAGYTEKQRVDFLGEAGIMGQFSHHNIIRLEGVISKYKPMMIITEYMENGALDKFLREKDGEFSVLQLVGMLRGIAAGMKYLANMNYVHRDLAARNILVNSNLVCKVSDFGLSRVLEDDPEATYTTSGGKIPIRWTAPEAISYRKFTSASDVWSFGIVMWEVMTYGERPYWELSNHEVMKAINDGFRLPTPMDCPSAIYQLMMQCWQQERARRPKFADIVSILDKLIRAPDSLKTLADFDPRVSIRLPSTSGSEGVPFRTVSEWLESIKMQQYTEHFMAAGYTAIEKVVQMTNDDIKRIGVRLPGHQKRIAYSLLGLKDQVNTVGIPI

Assay [2] concerns the target erbB2 (Homo sapiens, UniProt P04626). The assay can be described thus: erbB2 inhibition at a single concentration. The format is biochemical. To be noted: read-out: erbB2 % Inh 2 µg/mL.
The target in assay [3] is Mek and Erk (Homo sapiens, UniProt P28482+Q02750). As to the kind of experiment: Mitogen Activated Protein Kinase (MAPK) coupled assay (Mek-Erk). Format: biochemical. How it is done: Mitogen Activated Protein Kinase (MAPK) Assay
Sequence of Mek and Erk (Q02750 whole entry): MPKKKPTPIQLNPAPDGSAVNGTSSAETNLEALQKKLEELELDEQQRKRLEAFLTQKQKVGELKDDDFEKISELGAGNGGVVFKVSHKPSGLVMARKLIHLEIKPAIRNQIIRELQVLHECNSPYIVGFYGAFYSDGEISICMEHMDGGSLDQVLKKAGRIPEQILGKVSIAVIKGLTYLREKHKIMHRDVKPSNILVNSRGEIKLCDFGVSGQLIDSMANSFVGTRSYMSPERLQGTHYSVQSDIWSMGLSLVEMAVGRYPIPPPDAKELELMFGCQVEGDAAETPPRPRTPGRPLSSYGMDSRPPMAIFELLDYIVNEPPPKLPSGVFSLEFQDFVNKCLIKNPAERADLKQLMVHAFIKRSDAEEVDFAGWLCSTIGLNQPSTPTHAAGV
Sequence of Mek and Erk (P28482 2-360): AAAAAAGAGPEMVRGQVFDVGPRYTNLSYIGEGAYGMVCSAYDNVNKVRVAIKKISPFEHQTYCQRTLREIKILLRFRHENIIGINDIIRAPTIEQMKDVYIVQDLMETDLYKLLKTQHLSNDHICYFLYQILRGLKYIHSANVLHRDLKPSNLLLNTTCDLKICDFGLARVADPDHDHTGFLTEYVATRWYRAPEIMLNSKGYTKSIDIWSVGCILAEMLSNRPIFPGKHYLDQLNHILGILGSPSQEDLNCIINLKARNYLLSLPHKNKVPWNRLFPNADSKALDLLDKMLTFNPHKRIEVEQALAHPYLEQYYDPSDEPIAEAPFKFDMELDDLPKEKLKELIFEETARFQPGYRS
To evaluate inhibitors of the MAP (mitogen activated protein) kinase a two component coupled standard pharmacological test procedure, which measures phosphorylation of a serine/threonine residue in an appropriate sequence in the substrate in the presence and absence of a putative inhibitor, was used. Recombinant human MEK 1 (MAPKK) was first used to activate recombinant human ERK2 (MAPK) and the activated MAPK (ERK) was incubated with substrate (MBP peptide or MYC peptide) in the presence of ATP, Mg^+2 and radiolabeled ^33P ATP. The phosphorylated peptide was captured on a P 81 phosphocellulose filter (paper filter or embedded in microtiter plate) washed and counted by scintillation methods.
The peptide substrates used in the assay are MBP, peptide substrate ([…]), or synthetic Myc substrate, ([…]•5 TFA. The recombinant enzymes used were prepared as GST fusion proteins of human ERK 2 and human MEK 1. Inhibitor samples were prepared as 10X stocks in 10% DMSO and an appropriate aliquot was used to deliver either 10 ug/ml for a single point screening dose or 100, 10, 1, and 0.1 uM final concentration for a dose response curve. Final DMSO concentrations were less than or equal to 1%.
The reaction was run as follows in 50 mM Tris kinase buffer, pH 7.4 in a reaction volume of 50 ul. The appropriate volume of kinase buffer and inhibitor sample was added to the tube. Appropriate dilution of enzyme was delivered to give 2-5 ug recombinant MAPK (Erk ) per tube. The inhibitor was incubated with MAPK (Erk) for 30 min at 0 deg. C. Recombinant Mek (MAPKK) ( 0.5-2.5 ug) or fully activated Mek (0.05-0.1 units) was added to activate the Erk and incubated for 30 min at 30° C. Then substrate and gamma ^33P ATP was were added to give a final concentration of 0.5- 1 mM MBPP or 250-500 uM Myc; 0.2-0.5 uCi gamma P 33 ATP/tube; 50 µM ATP final concentration. Samples were incubated at 30°C for 30 minutes and the reaction was stopped by adding 25 µl of ice cold 10 %TCA .After samples were chilled on ice for 30 min, 20 µl of sample was transferred onto P 81 phosphocellulose filter paper or appropriate MTP with embedded P 81 filter. Filter papers or MTP were washed 2 times with a large volume of 1% acetic acid, then 2 times with water. The filters or MTP were briefly air dried before addition of scintillant and samples were counted in the appropriate scintillation counter set up for reading ^33P isotope. Samples included a positive control (activated enzyme plus substrate); a no enzyme control; a no substrate control; samples with different concentrations of putative inhibitor; and samples with reference inhibitors (other active compounds or non-specific inhibitors such as staurosporine or K252 B).
The raw data was captured as cpm. Sample replicates were averaged and corrected for background count. Mean cpm data was tabulated by group and % inhibition by a test compound was calculated as (corrected cpm control- corrected. cpm sample/control) X 100 = % inhibition. […] The results obtained for representative compounds of this invention are listed in TABLE 2 where there may be separate entries for the same compound; this is an indication that the compound was evaluated more than one time.

For assay [4], the target named is T1, epidermal growth factor receptor kinase (Homo sapiens, UniProt P00533).
T1 construct: containing the EGFR cDNA encoding amino acids 645 - 1186 preceded by Met-Ala-(His)6; made in house; host or cells: Sf9 insect cells, recombinant baculovirus vHcEGFR52
T1 sequence (P00533 669-1210): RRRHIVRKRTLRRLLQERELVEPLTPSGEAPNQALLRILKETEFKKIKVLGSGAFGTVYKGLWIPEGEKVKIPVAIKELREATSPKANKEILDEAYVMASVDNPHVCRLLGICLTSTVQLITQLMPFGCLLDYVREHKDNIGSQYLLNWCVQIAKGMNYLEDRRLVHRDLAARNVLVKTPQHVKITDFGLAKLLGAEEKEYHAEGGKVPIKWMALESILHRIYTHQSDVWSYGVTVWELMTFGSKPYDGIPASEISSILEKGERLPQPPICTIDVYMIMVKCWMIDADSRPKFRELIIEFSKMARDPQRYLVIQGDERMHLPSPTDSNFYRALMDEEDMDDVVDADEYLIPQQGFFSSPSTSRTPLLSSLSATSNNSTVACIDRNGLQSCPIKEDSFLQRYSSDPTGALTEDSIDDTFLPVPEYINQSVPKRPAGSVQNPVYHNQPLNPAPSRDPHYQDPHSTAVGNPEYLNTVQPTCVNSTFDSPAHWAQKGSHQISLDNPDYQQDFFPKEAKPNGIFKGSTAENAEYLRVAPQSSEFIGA
The assay can be described thus: Inhibition of Epidermal Growth Factor Receptor Kinase (EGF-R) using recombinant enzyme. Format: biochemical. The conditions noted are these: averages of the individual determinations.
Procedure: Representative test compounds were evaluated for their ability to inhibit the phosphorylation of the tyrosine residue of a peptide substrate catalyzed by the enzyme epidermal growth factor receptor kinase. […] The enzyme used in this assay is the His-tagged cytoplasmic domain of EGFR. A recombinant baculovirus (vHcEGFR52) was constructed containing the EGFR cDNA encoding amino acids 645 - 1186 preceded by Met-Ala-(His)6. Sf9 cells in 100 mm plates were infected at an moi of 10 pfu/cell and cells were harvested 48 h post infection. A cytoplasmic extract was prepared using 1% Triton X-100 and applied to Ni-NTA column. After washing the column with 20 mM imidazole, HcEGFR was eluted with 250 mM imidazole (in 50 mM Na2HPO4, pH 8.0, 300 mM NaCl). Fractions collected were dialyzed against 10 mM HEPES, pH 7.0, 50 mM NaCl, 10% glycerol, 1ug/mL antipain and leupeptin and 0.1 mM Pefabloc SC. The protein was frozen in dry ice/methanol and stored -70°C.
Test compounds were made into 10 mg/mL stock solutions in 100% dimethylsulfoxide (DMSO). Prior to experiment, stock solutions were diluted to 500 uM with 100% DMSO and then serially diluted to the desired concentration with HEPES buffer (30 mM HEPES pH 7.4).
For the enzyme reaction, 10 µL of each inhibitor (at various concentrations) were added to each well of a 96-well plate. To this was added 3 µL of enzyme (1:10 dilution in 10mM HEPES, pH 7.4 for final conc. of 1:120). This was allowed to sit for 10 min on ice and was followed by the addition of 5 µl peptide (80 µM final conc.), 10 µl of 4X Buffer (Table A), 0.25 µL ^33P-ATP and 12 µL H2O. The reaction was allowed to run for 90 min at room temperature and was followed by spotting the entire volume on to precut P81 filter papers. The filter discs were washed 2X with 0.5% phosphoric acid and radioactivity was measured using a liquid scintillation counter.
The % inhibition of the test compound was determined for at least three different concentrations and the IC50 value was evaluated from the dose response curve. […] CPM(control) is in units of counts per minute and was a number expressing the amount of radiolabled ATP (g-^33P) incorporated into the RR-SRC peptide substrate by the enzyme after 90 minutes at room temperature in the absence of test compound as measured by liquid scintillation counting. The CPM values were corrected for the background counts produced by ATP in the absence of the enzymatic reaction. The IC50 values in TABLE 1 are averages of the individual determinations.

Assay [5] has as its system A431. As to the kind of experiment: Inhibition of Cancer Cell Growth as Measured by Cell Number. Format: cell-based, Human. The conditions noted are these: Homo sapiens, A-431; 48 hours exposure, Sulforhodamine B. On the procedure: (§1) Inhibition of Cancer Cell Growth as Measured bv Cell Number
(§2) Human tumor cell lines were plated in 96-well plates (250 µl/well, 1-6 x 10^4 cells/ml) in RPMI 1640 medium, containing 5% FBS (Fetal Bovine Serum). […] After 48 hours exposure to test compounds, cells were fixed with trichloroacetic acid, and stained with Sulforhodamine B. After washing with trichloroacetic acid, bound dye was solubilized in 10 mM Tris base and optical density was determined using plate reader. Under conditions of the assay the optical density is proportional to the number of cells in the well. […] The test procedure is described in details by Philip Skehan et. al, J.Natl. Canc. Inst., 82, 1107-1112 (1990). […] Information about some of the cell lines used in these test procedures is available from the American Type Tissue Collection: Cell Lines and Hybridomas, 1994 Reference Guide, 8th Edition.

Assay [6] relates to SW620. The description is as above. Format: cell-based, Human. To be noted: Homo sapiens, SW-620; 48 hours exposure, Sulforhodamine B. On the procedure: as §1, §2
Assay [7] has as its system SKBR3. Described as above. The format is cell-based, Human. The conditions noted are these: Homo sapiens, SK-BR-3; 48 hours exposure, Sulforhodamine B. How it is done: as §1, §2
In assay [8] the test system is MDAMB435. The assay is described as above. Format: cell-based, Human. The conditions noted are these: Homo sapiens, MDA-MB-435; 48 hours exposure, Sulforhodamine B. On the procedure: as §1, §2
The mark [9] stands for this setting: coupled MEK 1 / ERK2; separate entries = separate tests; read-out: Mek and Erk.

Sequence of erbB2 (P04626 23-1255): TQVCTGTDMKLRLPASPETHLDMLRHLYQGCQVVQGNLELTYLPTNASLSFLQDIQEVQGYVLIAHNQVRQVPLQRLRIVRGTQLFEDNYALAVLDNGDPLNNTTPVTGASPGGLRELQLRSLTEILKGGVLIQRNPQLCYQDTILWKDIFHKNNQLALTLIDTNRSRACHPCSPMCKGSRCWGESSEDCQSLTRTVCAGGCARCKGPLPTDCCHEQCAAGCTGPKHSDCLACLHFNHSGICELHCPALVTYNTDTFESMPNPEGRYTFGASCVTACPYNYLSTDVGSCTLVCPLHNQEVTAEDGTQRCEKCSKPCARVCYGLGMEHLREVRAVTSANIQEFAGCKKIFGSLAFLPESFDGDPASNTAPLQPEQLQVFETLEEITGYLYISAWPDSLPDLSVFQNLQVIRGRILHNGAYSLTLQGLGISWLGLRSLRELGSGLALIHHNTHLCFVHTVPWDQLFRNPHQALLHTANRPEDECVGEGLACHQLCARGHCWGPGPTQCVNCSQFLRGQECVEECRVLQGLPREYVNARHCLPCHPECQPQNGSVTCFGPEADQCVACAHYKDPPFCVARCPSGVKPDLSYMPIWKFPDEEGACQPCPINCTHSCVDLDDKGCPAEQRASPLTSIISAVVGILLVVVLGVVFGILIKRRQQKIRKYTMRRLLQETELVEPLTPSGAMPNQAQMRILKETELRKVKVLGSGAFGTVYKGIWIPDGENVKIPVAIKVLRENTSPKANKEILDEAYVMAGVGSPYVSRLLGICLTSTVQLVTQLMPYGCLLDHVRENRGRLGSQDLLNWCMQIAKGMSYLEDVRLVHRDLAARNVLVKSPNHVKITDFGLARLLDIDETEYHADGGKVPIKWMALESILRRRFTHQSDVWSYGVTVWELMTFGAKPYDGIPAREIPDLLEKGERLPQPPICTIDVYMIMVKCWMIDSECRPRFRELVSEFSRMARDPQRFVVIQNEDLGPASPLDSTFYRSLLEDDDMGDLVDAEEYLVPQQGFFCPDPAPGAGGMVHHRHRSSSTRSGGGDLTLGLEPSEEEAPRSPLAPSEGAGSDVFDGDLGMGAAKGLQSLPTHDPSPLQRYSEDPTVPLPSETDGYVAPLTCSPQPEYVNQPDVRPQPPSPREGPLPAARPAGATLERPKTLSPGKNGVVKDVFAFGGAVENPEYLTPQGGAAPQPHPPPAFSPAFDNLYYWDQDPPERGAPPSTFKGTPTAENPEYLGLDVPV

With `COCOCC#CC(=O)Nc1ccc2ncc(C#N)c(Nc3cccc(Br)c3)c2c1` [Example 74, 4-Methoxymethoxy-but-2-ynoic acid [4-(3-bromo-phenylamino)-3-cyano-quinolin-6-yl]-amide], the IC50 was above 43 µM in assay [1] and above 100 µM in assay [3] (setting [9]). In assay [2], the inhibition at 2 µg/mL stood at 95%.
For the molecule `COC[C@@H]1CCCN1CC#CC(=O)Nc1ccc2ncc(C#N)c(Nc3cccc(Br)c3)c2c1` [Example 79, 4-((2S)-2-Methoxymethylpyrrolidin-1-yl)but-2-ynoic Acid [4-(3-bromophenylamino)-3-cyanquinolin-6-yl]amide], the IC50 in assay [4] was 0.36 nM; in assay [5] it was 0.04 µg/mL (≈ 0.0772 µM); in assay [6], 0.1 µg/mL (≈ 0.193 µM); in assay [7], 0.01 µg/mL (≈ 0.0193 µM); in assay [8] it was 0.3 µg/mL (≈ 0.579 µM).
Regarding `CN1CCC=C(C(=O)Nc2ccc3ncc(C#N)c(Nc4cccc(Br)c4)c3c2)C1` [Example 78, 1-Methyl-1,2,5,6-tetrahydro-pyridine-3-carboxylic acid [4-(3-bromo-phenylamino)-3-cyano-quinolin-6-yl]-amide], the IC50 is above 21.3 µM in assay [1]; 0.369 µg/mL (≈ 0.798 µM) in assay [5]; above 5 µg/mL in assay [6]; 1.5 µg/mL (≈ 3.23 µM) in assay [7]; 3.19 µg/mL (≈ 6.91 µM) in assay [8]; 40 µM in assay [3] (setting [9]). In assay [2], the inhibition at 2 µg/mL turned out to be 53%.
In the case of `COc1cc2ncc(C#N)c(Nc3ccc(F)c(Cl)c3)c2cc1NC(=O)C=CCN1CCOCCOCCOCC1` [Example 109, 4-(1,4,7-Trioxa-10-aza-cyclododec-10-yl)-but-2-enoic acid [4-(3-chloro-4-fluoro-phenylamino)-3-cyano-7-methoxy-quinolin-6-yl]-amide], the IC50 in assay [4] came to 7 nM.
Still for that read-out and setting: for `COc1cc2ncc(C#N)c(Nc3ccc(F)c(Cl)c3)c2cc1NC(=O)C=CCN(CCO)CCO` [Example 106, 4-[Bis-(2-hydroxy-ethyl)-amino]-but-2-enoic acid [4-(3-chloro-4-fluoro-phenylamino)-3-cyano-7-methoxy-quinolin-6-yl]-amide] the value was 13 nM; for `C=CCN(CC=C)CC=CC(=O)Nc1cc2c(Nc3ccc(F)c(Cl)c3)c(C#N)cnc2cc1OC` [Example 103, 4-Diallylamino-but-2-enoic acid [4-(3-chloro-4-fluoro-phenylamino)-3cyano-7-methoxy-quinolin-6-yl]-amide], 8 nM; for `COc1cc2ncc(C#N)c(Nc3ccc(F)c(Cl)c3)c2cc1NC(=O)C=CCN1CCC(O)(O)CC1` [Example 119, 4-(4,4-Dihydroxy-piperidin-1-yl)-but-2-enoic acid [4-(3-chloro-4-fluoro-phenylamino)-3-cyano-7-methoxy-quinolin-6-yl]-amide], 0.05 nM.
Consider `COCCN(CC#CC(=O)Nc1ccc2ncc(C#N)c(Nc3cccc(Br)c3)c2c1)CCOC` [Example 75, N-[4-[(3-Bromophenyl)amino]-3-cyano-6-quinolinyl]-4-(bis-(2-methoxyethyl)amino)-2-butynamide], for which the IC50 was determined as 0.4 nM in assay [4]; 0.1 µg/mL (≈ 0.186 µM) in assay [5]; 0.5 µg/mL (≈ 0.932 µM) in assay [6]; 0.04 µg/mL (≈ 0.0746 µM) in assay [7]; 0.2 µg/mL (≈ 0.373 µM) in assay [8]; 100 µM in assay [3] (setting [9]).
With `COc1cc2ncc(C#N)c(Nc3ccc(F)c(Cl)c3)c2cc1NC(=O)C=CCN1CCN(CCO)CC1` [Example 108, 4-[4-(2-Hydroxy-ethyl)-piperazin-1-yl]-but-2-enoic acid [4-(3-chloro-4-fluoro-phenylamino)-3-cyano-7-methoxy-quinolin-6-yl]-amide], the IC50 in assay [4] was found to be 26 nM.
Still for that read-out and setting: then `COc1cc2ncc(C#N)c(Nc3ccc(F)c(Cl)c3)c2cc1NC(=O)C=CC[n+]1cscc1C` [Example 96, 3-{3-[4-(3-Chloro-4-fluoro-phenylamino)-3-cyano-7-methoxy-quinolin-6-ylcarbamoyl]-allyl}-4-methyl-thiazol-3-ium bromide], with 100 nM.
As to `COCCN(C)CC#CC(=O)Nc1ccc2ncc(C#N)c(Nc3cccc(Br)c3)c2c1` [Example 76, N-[4-[(3-Bromophenyl)amino]-3-cyano-6-quinolinyl]-4-(N-methoxyethyl-N-methylamino)-2-butynamide], the IC50 in assay [4] was 10 nM; in assay [5], 0.05 µg/mL (≈ 0.102 µM); in assay [6] it was 0.239 µg/mL (≈ 0.485 µM); in assay [7] it was 0.031 µg/mL (≈ 0.063 µM); in assay [8], 0.284 µg/mL (≈ 0.577 µM); in assay [3] (setting [9]), above 100 µM. In addition, the inhibition at 2 µg/mL in assay [2] was 96%.
For `COc1cc2ncc(C#N)c(Nc3ccc(F)c(Cl)c3)c2cc1NC(=O)C=CC[n+]1csc(C)c1` [Example 95, 3-{3-[4-(3-Chloro-4-fluoro-phenylamino)-3-cyano-7-methoxy-quinolin-6-ylcarbamoyl]-allyl}-5-methyl-thiazol-3-ium bromide], in assay [4], the IC50 was 5 nM.
As for `COc1cc2ncc(C#N)c(Nc3ccc(F)c(Cl)c3)c2cc1NC(=O)C=CCN(CC(C)O)CC(C)O` (stereo not shown) [Example 115, 4-[Bis-(2-hydroxy-propyl)-amino]-but-2-enoic acid [4-(3-chloro-4-fluoro-phenylamino)-3-cyano-7-methoxy-quinolin-6-yl]-amide], in assay [4], the IC50 came to 5 nM.
Consider `CCOc1c(Nc2ccc3ncc(C#N)c(Nc4cccc(Br)c4)c3c2)c(=O)c1=O` [Example 85, 4-(3-Bromo-phenylamino)-6-(2-ethoxy-3,4-dioxo-cyclobut-1-enylamino)-quinoline-3-carbonitrile], for which the IC50 in assay [5] came out at 4.91 µg/mL (≈ 10.6 µM); in assay [6], 18 µg/mL (≈ 38.8 µM); in assay [7] it was 1.74 µg/mL (≈ 3.76 µM); in assay [8], 27.6 µg/mL (≈ 59.6 µM); in assay [3] (read-out: Mek and Erk; coupled MEK 1 / ERK2; separate entries = separate tests), 1.8 µM. Also, the inhibition at 2 µg/mL in assay [2] turned out to be 87%.
On to `COc1cc2ncc(C#N)c(Nc3ccc(F)c(Cl)c3)c2cc1NC(=O)C=CCN1CCSCC1` [Example 107, 4-Thiomorpholin-4-yl-but-2-enoic acid [4-(3-chloro-4-fluoro-phenylamino)-3-cyano-7-methoxy-quinolin-6-yl]-amide], for which the IC50 in assay [4] turned out to be 500 nM.
